Measurements: PubChem BioAssay AID328 (DTP/NCI, 2004)
Several values for one entry are separate records, joined by “and”; a condition that tells them apart may be missing. Identical values can stand only once. Inconclusive results and toxic doses are left out.

System: BDF1 mice, P388 leukemia ip, median survival T/C
Assay: NCI In Vivo Anticancer Drug Screen. Data for tumor model P388 Leukemia (intraperitoneal) in B6D2F1 (BDF1) mice
Details: endpoint: median survival time, higher = longer survival
Method in brief: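 Mice carrying the transplantable tumour receive compound or vehicle. Survival is followed in each arm, and the treated measure is divided by the vehicle measure.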

[1] = dose: 12.5 mg/kg/injection, schedule: Q01DX009 (ip), vehicle: Klucel (hydroxypropylcellulose) (HPC)
[2] = dose: 50.0 mg/kg/injection, schedule: Q01DX009 (ip), vehicle: Klucel (hydroxypropylcellulose) (HPC)
[3] = dose: 100.0 mg/kg/injection, schedule: Q01DX009 (ip), vehicle: Klucel (hydroxypropylcellulose) (HPC)
[4] = dose: 100.0 mg/kg/injection, schedule: Q04DX003 (ip), vehicle: Klucel (hydroxypropylcellulose) (HPC)
[5] = dose: 200.0 mg/kg/injection, schedule: Q04DX003 (ip), vehicle: Klucel (hydroxypropylcellulose) (HPC)
[6] = dose: 400.0 mg/kg/injection, schedule: Q04DX003 (ip), vehicle: Klucel (hydroxypropylcellulose) (HPC)
[7] = dose: 50.0 mg/kg/injection, schedule: Q01DX009 (ip), vehicle: saline
[8] = dose: 50.0 mg/kg/injection, schedule: Q04DX003 (ip), vehicle: saline
[9] = dose: 100.0 mg/kg/injection, schedule: Q01DX009 (ip), vehicle: saline
[10] = dose: 100.0 mg/kg/injection, schedule: Q04DX003 (ip), vehicle: saline
[11] = dose: 100.0 mg/kg/injection, schedule: Q04DX003 (ip), vehicle: saline with Tween-80
[12] = dose: 200.0 mg/kg/injection, schedule: Q04DX003 (ip), vehicle: saline with Tween-80
[13] = dose: 400.0 mg/kg/injection, schedule: Q04DX003 (ip), vehicle: saline with Tween-80
[14] = dose: 100.0 mg/kg/injection, schedule: Q01DX009 (ip), vehicle: saline with Tween-80

For `Cc1ccc(S(=O)(=O)N/N=C/C(Br)=C(/Br)C(=O)O)cc1`, the T/C (dose: 6.25 mg/kg/injection, schedule: Q01DX009 (ip), vehicle: Klucel (hydroxypropylcellulose) (HPC)) was 119 % of control, the T/C [1] was 124 % of control and the T/C [2] was 155 % of control. The T/C [3] was 153 % of control.

For `CCOC(=O)c1ccc(N=CNc2ccc(C(=O)OCC)cc2)cc1`, the T/C (dose: 12.5 mg/kg/injection, schedule: Q01DX009 (ip), vehicle: saline with Tween-80) was 100 % of control, the T/C (dose: 25.0 mg/kg/injection, schedule: Q01DX009 (ip), vehicle: saline with Tween-80) was 92 % of control and the T/C (dose: 25.0 mg/kg/injection, schedule: Q04DX003 (ip), vehicle: saline with Tween-80) was 91 % of control. The T/C (dose: 50.0 mg/kg/injection, schedule: Q04DX003 (ip), vehicle: saline with Tween-80) was 87 % of control.

In the case of `O=C(NCCBr)Nc1cccc2c1Cc1ccccc1-2`, the T/C [4] is reported as 100 % of control, the T/C [5] is reported as 100 % of control and the T/C [6] is reported as 95 % of control.

With `COc1ccc(C(C(N)=O)N2CCCCC2)cc1` (stereo unspecified) the T/C (dose: 100.0 mg/kg/injection, schedule: Q01DX009 (ip), vehicle: other) was 115 % of control, the T/C [4] was 100 % of control and the T/C (dose: 200.0 mg/kg/injection, schedule: Q01DX009 (ip), vehicle: other) was 105 % of control. For the same compound, the T/C [5] was 90 % of control, the T/C (dose: 400.0 mg/kg/injection, schedule: Q01DX009 (ip), vehicle: other) was 100 % of control and the T/C [6] was 104 % of control.

`CC1=CCS(=O)(=O)C1` was tested, and the T/C (dose: 25.0 mg/kg/injection, schedule: Q01DX001 (ip), vehicle: other) was 95 % of control, the T/C (dose: 25.0 mg/kg/injection, schedule: Q01DX009 (ip), vehicle: saline) was 113 % of control and the T/C (dose: 25.0 mg/kg/injection, schedule: Q04DX003 (ip), vehicle: saline) was 91 % of control. The T/C (dose: 50.0 mg/kg/injection, schedule: Q01DX001 (ip), vehicle: other) was 86 % of control, the T/C [7] was 100 % of control and the T/C [8] was 87 % of control. For the same compound, the T/C (dose: 100.0 mg/kg/injection, schedule: Q01DX001 (ip), vehicle: other) was 95 % of control, the T/C [9] was 109 % of control and the T/C [10] was 91 % of control.

In the case of `C=C1CC2(CC(C)(C)CC(C)(C)C2)OC1=O`, the T/C [11] is reported as 97 % of control, the T/C [12] is reported as 112 % of control and the T/C [13] is reported as 106 % of control.

`CSC1CCCC(=O)C1` (stereo unspecified) was tested, and the T/C [1] was 100 % of control, the T/C (dose: 25.0 mg/kg/injection, schedule: Q01DX009 (ip), vehicle: Klucel (hydroxypropylcellulose) (HPC)) was 105 % of control and the T/C [4] was 100 % of control. The T/C [5] was 95 % of control and the T/C [6] was 90 % of control.

For `N#CC(C#N)=Cc1ccc2c(c1)CCC2`, the T/C (dose: 5.0 mg/kg/injection, schedule: Q04DX003 (ip), vehicle: saline with Tween-80) was 104 % of control, the T/C (dose: 9.5 mg/kg/injection, schedule: Q01DX009 (ip), vehicle: saline with Tween-80) was 104 % of control and the T/C (dose: 10.0 mg/kg/injection, schedule: Q04DX003 (ip), vehicle: saline with Tween-80) was 95 % of control. The T/C (dose: 19.0 mg/kg/injection, schedule: Q01DX009 (ip), vehicle: saline with Tween-80) was 109 % of control, the T/C (dose: 20.0 mg/kg/injection, schedule: Q04DX003 (ip), vehicle: saline with Tween-80) was 95 % of control and the T/C (dose: 38.0 mg/kg/injection, schedule: Q01DX009 (ip), vehicle: saline with Tween-80) was 86 % of control and 100 % of control.

In the case of `COc1ccc2c(c1OC)CCN1C3=C(CC4(CC3)OCCO4)C(=O)CC21` (stereo unspecified), the T/C (dose: 100.0 mg/kg/injection, schedule: Q04DX003 (ip), vehicle: saline sonified) is reported as 105 % of control, the T/C (dose: 200.0 mg/kg/injection, schedule: Q04DX003 (ip), vehicle: saline sonified) is reported as 100 % of control and the T/C (dose: 400.0 mg/kg/injection, schedule: Q04DX003 (ip), vehicle: saline sonified) is reported as 90 % of control.

In the case of `CC12OC(=O)CC1CC(=O)O2` (stereo unspecified), the T/C (dose: 50.0 mg/kg/injection, schedule: Q01DX001 (ip), vehicle: saline) is reported as 95 % of control, the T/C (dose: 100.0 mg/kg/injection, schedule: Q01DX001 (ip), vehicle: saline) is reported as 95 % of control and the T/C (dose: 200.0 mg/kg/injection, schedule: Q01DX001 (ip), vehicle: saline) is reported as 105 % of control.

For `Nc1nc(N)c2cc(CNc3ccc(C(=O)NC(C(=O)O)C(=O)O)cc3)ccc2n1`, the T/C (dose: 0.15 mg/kg/injection, schedule: Q01DX009 (ip), vehicle: saline) was 163 % of control.

With `NC(=O)C(N)CCSCC(=O)O` (stereo unspecified) the T/C [7] was 88 % of control, the T/C [9] was 91 % of control and the T/C (dose: 200.0 mg/kg/injection, schedule: Q01DX009 (ip), vehicle: saline) was 94 % of control.

In the case of `CCOC(=O)/C(C#N)=C/N(C)Cc1ccccc1`, the T/C (dose: 50.0 mg/kg/injection, schedule: Q01DX009 (ip), vehicle: saline with Tween-80) is reported as 108 % of control and the T/C [14] is reported as 105 % of control.

In the case of `COc1ccc(C(CCl)(CCl)c2ccc(OC)c(C)c2)cc1C`, the T/C [14] is reported as 104 % of control, the T/C [11] is reported as 91 % of control and the T/C [12] is reported as 87 % of control. For the same compound, the T/C (dose: 400.0 mg/kg/injection, schedule: Q01DX009 (ip), vehicle: saline with Tween-80) was 100 % of control and the T/C [13] was 100 % of control.

In the case of `Nc1c(C(=O)O)ccc2c1C(=O)c1ccccc1C2=O`, the T/C (dose: 44.0 mg/kg/injection, schedule: Q04DX003 (ip), vehicle: gum acacia) is reported as 87 % of control, the T/C (dose: 50.0 mg/kg/injection, schedule: Q01DX009 (ip), vehicle: gum acacia) is reported as 92 % of control and the T/C (dose: 67.0 mg/kg/injection, schedule: Q04DX003 (ip), vehicle: Klucel (hydroxypropylcellulose) (HPC)) is reported as 115 % of control. The T/C (dose: 67.0 mg/kg/injection, schedule: Q04DX003 (ip), vehicle: gum acacia) was 100 % of control, the T/C (dose: 100.0 mg/kg/injection, schedule: Q01DX009 (ip), vehicle: gum acacia) was 103 % of control and the T/C [4] was 120 % of control. For the same compound, the T/C (dose: 100.0 mg/kg/injection, schedule: Q04DX003 (ip), vehicle: gum acacia) was 87 % of control, the T/C (dose: 150.0 mg/kg/injection, schedule: Q04DX003 (ip), vehicle: Klucel (hydroxypropylcellulose) (HPC)) was 110 % of control and the T/C (dose: 150.0 mg/kg/injection, schedule: Q04DX003 (ip), vehicle: gum acacia) was 116 % of control.

In the case of `CC(=O)c1cccc([N+](=O)[O-])c1`, the T/C (dose: 100.0 mg/kg/injection, schedule: Q04DX003 (ip), vehicle: other) is reported as 100 % of control, the T/C (dose: 200.0 mg/kg/injection, schedule: Q04DX003 (ip), vehicle: other) is reported as 104 % of control and the T/C (dose: 400.0 mg/kg/injection, schedule: Q04DX003 (ip), vehicle: other) is reported as 90 % of control.

`CNC1C(OC2C(OC3C(O)C(O)C(N=C(N)N)C(O)C3N=C(N)N)OC(C)C2(O)C=O)OC(CO)C(O)C1O` (stereo unspecified) was tested, and the T/C (dose: 100.0 mg/kg/injection, schedule: Q01DX009 (ip), vehicle: water) was 103 % of control, the T/C (dose: 200.0 mg/kg/injection, schedule: Q01DX009 (ip), vehicle: water) was 112 % of control and the T/C (dose: 400.0 mg/kg/injection, schedule: Q01DX009 (ip), vehicle: water) was 103 % of control.

In the case of `c1nnc(NCNc2nncs2)s1`, the T/C (dose: 12.0 mg/kg/injection, schedule: Q04DX003 (ip), vehicle: saline) is reported as 100 % of control, the T/C (dose: 12.5 mg/kg/injection, schedule: Q01DX010 (ip), vehicle: saline) is reported as 204 % of control and the T/C (dose: 19.0 mg/kg/injection, schedule: Q04DX003 (ip), vehicle: saline) is reported as 118 % of control. The T/C (dose: 25.0 mg/kg/injection, schedule: Q01DX010 (ip), vehicle: saline) was 227 % of control, the T/C (dose: 29.0 mg/kg/injection, schedule: Q04DX003 (ip), vehicle: saline) was 186 % of control and the T/C (dose: 45.0 mg/kg/injection, schedule: Q04DX003 (ip), vehicle: saline) was 177 % of control. For the same compound, the T/C [7] was 100 % of control, the T/C (dose: 50.0 mg/kg/injection, schedule: Q01DX010 (ip), vehicle: saline) was 90 % of control and the T/C [8] was 190 % of control. For the same compound, the T/C (dose: 66.0 mg/kg/injection, schedule: Q04DX003 (ip), vehicle: saline) was 150 % of control and 195 % of control, the T/C [9] was 100 % of control and the T/C [10] was 227 % of control and 235 % of control and 195 % of control. The T/C (dose: 150.0 mg/kg/injection, schedule: Q04DX003 (ip), vehicle: saline) was 210 % of control and 213 % of control.

For `Nc1nc(N)c2cc(S(=O)(=O)c3ccc4ccccc4c3)ccc2n1`, the T/C [2] was 90 % of control, the T/C [3] was 109 % of control and the T/C [4] was 90 % of control. For the same compound, the T/C (dose: 200.0 mg/kg/injection, schedule: Q01DX009 (ip), vehicle: Klucel (hydroxypropylcellulose) (HPC)) was 95 % of control, the T/C [5] was 104 % of control and the T/C [6] was 104 % of control.
